Experiments:
[1] = target: Prothrombin (Homo sapiens, UniProt P00734); test: Compound was evaluated for its inhibitory activity against human thrombin
[2] = target: T1, Serine protease 1 (Bos taurus, UniProt P00760); test: Compound was evaluated for its inhibitory activity against bovine trypsin
T1 sequence (P00760 whole entry): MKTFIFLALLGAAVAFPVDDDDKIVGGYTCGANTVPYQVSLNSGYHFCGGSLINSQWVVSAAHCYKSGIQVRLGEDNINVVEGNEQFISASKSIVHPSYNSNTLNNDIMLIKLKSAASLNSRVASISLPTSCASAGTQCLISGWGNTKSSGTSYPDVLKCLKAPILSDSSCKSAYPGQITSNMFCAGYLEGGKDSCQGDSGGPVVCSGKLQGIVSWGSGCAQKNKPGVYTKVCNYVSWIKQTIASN

Row | Ki [1] [nM] | Ki [2] [nM] | SMILES
1 | 0.49 | 134 | COc1ccc2cc(S(=O)(=O)N[C@@H](Cc3ccc(C(=N)N)s3)C(=O)N(C)C3CCCC3)ccc2c1
2 | 3 | 153 | CN(C(=O)[C@H](Cc1ccc(C(=N)N)s1)NS(=O)(=O)c1ccc2ccccc2c1)C1CCCC1
3 | 0.84 | 2440 | CCCc1ccc(S(=O)(=O)N[C@@H](Cc2ccc(C(=N)N)cc2)C(=O)N(C)C2CCCC2)cc1
4 | 91 | – | CN(C(=O)[C@H](Cc1ccc(C(=N)NN)s1)NS(=O)(=O)c1ccc2ccccc2c1)C1CCCC1
5 | 0.6 | 150 | CCCc1ccc(S(=O)(=O)N[C@@H](Cc2ccc(C(=N)N)s2)C(=O)N(C)C2CCCC2)cc1
6 | 6.8 | 16200 | CN(C(=O)[C@H](Cc1ccc(C(=N)N)cc1)NS(=O)(=O)c1ccc2ccccc2c1)C1CCCC1
